Results taken from patent US10479784B2, “Substituted pyrazin-2-amines as inhibitors of ATR kinase” (Vertex Pharmaceuticals Incorporated, priority 2008, dated 2019).

Target: full-length ATR (Homo sapiens (Human), UniProt Q13535)
Test: ATR Inhibition Assay (radioactive-phosphate incorporation)
Type: biochemical
Conditions: read-out: ATR Ki
Method: Compounds were screened for their ability to inhibit ATR kinase using a radioactive-phosphate incorporation assay. Assays were carried out in a mixture of 50 mM Tris/HCl (pH 7.5), 10 mM MgCl2 and 1 mM DTT. Final substrate concentrations were […] [γ-33P]ATP (3mCi 33P ATP/mmol ATP, Perkin Elmer) and 800 μM target peptide ([…]).
Assays were carried out at 25° C. in the presence of 5 nM full-length ATR. An assay stock buffer solution was prepared containing all of the reagents listed above, with the exception of ATP and the test compound of interest. […] The plate was pre-incubated for 10 minutes at 25° C. and the reaction initiated by addition of 15 μL [γ-33P]ATP (final concentration 10 μM).
The reaction was stopped after […] by the addition of 30 μL 0.1M phosphoric acid containing 2 mM ATP. A multiscreen phosphocellulose filter 96-well plate (Millipore, Cat no. MAPHN0B50) was pretreated with 100 μL 0.2M phosphoric acid prior to the addition of 45 μL of the stopped assay mixture. […] After drying, 100 μL Optiphase ‘SuperMix’ liquid scintillation cocktail (Perkin Elmer) was added to the well prior to scintillation counting (1450 Microbeta Liquid Scintillation Counter, Wallac).
After removing mean background values for all of the data points, Ki(app) data were calculated from non-linear regression analysis of the initial rate data using the Prism software package (GraphPad Prism version 3.0cx for Macintosh, GraphPad Software, San Diego Calif., USA).

Sequence of full-length ATR (Q13535 whole entry): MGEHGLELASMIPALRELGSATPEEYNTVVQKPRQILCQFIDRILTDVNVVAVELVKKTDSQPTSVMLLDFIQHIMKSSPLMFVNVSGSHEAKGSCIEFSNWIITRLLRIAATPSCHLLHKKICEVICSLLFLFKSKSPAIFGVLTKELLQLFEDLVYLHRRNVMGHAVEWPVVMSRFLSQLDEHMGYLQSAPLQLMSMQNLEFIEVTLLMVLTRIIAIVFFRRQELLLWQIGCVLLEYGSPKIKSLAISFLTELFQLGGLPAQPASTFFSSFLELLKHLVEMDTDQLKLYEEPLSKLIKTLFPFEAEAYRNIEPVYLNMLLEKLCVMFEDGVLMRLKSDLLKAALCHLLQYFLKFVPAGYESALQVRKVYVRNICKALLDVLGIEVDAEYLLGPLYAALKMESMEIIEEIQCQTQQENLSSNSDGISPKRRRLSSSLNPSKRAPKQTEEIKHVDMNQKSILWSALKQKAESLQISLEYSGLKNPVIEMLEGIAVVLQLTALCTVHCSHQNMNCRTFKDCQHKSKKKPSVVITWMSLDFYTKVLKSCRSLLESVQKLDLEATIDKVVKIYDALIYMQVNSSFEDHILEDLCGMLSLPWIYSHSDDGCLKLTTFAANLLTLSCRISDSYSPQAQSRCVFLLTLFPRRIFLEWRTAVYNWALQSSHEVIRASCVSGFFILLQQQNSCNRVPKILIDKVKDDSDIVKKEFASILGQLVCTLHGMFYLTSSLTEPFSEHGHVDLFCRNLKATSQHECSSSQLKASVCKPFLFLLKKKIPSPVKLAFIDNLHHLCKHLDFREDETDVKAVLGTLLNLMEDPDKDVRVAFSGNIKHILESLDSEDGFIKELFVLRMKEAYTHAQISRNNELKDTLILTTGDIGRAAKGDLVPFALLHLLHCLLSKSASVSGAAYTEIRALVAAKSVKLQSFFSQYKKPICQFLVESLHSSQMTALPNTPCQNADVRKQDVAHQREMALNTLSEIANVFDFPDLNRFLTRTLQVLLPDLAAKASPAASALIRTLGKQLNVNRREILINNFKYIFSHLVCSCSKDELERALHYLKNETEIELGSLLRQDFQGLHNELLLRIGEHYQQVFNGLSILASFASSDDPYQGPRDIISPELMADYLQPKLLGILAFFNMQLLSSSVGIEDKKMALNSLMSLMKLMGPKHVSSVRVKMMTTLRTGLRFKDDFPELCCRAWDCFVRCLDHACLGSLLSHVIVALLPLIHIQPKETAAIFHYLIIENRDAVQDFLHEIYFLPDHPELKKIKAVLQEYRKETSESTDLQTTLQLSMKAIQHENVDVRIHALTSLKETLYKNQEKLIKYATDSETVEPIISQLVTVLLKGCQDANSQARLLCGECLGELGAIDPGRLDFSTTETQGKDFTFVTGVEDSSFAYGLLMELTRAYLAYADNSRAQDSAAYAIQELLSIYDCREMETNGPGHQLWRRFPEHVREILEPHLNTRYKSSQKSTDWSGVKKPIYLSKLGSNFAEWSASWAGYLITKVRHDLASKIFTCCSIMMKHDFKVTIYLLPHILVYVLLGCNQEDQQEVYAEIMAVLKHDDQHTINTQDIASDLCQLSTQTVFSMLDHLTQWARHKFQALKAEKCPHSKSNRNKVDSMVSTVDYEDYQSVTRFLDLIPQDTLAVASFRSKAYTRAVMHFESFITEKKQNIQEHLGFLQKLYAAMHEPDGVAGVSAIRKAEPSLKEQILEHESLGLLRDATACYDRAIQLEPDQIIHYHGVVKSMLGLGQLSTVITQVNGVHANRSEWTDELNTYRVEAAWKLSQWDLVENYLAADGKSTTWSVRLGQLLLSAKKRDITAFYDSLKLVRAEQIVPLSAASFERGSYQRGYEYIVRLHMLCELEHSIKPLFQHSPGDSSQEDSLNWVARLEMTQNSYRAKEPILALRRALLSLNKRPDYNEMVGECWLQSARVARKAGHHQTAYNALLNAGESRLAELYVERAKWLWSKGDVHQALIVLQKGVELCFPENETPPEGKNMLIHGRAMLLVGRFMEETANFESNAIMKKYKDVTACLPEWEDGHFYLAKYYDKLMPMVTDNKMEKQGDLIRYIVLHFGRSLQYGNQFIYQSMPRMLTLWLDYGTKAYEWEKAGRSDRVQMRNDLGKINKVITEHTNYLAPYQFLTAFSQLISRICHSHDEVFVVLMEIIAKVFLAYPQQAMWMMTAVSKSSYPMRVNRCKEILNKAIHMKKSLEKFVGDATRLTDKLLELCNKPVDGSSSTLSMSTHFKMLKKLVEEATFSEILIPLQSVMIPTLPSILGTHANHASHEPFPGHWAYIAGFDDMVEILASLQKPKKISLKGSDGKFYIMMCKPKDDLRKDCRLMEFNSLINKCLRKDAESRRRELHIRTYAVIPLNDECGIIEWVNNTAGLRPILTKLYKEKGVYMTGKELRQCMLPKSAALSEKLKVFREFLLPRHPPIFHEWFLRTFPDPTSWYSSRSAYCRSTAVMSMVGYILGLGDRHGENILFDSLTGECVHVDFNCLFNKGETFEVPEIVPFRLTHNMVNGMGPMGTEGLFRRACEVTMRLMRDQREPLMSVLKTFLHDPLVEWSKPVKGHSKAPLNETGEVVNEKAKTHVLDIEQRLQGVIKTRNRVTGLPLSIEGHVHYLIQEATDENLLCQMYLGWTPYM

| Ki [nM] | Structure (SMILES) |
| --- | --- |
| ≤ 10 | Nc1ncc(-c2ccc(S(=O)(=O)NCCO)cc2)nc1-c1nnc(-c2ccccc2)o1 [IA-26] |
| 10 to 100 | Nc1ncc(-c2ccc(C(=O)N3CCCNCC3)cc2)nc1C(=O)Nc1nc2ccccc2s1 [Compound V-9] |
| ≤ 10 | COc1ccccc1NC(=O)c1nc(-c2ccc(C(=O)N(C)C)cc2)cnc1N [Compound I-28, 3-amino-6-(4-(dimethylcarbamoyl)phenyl)-N-(2-methoxyphenyl) pyrazine-2-carboxamide] |
| ≤ 10 | CN(C)C(=O)c1ccc(-c2cnc(N)c(-c3nnc(-c4ccccc4)o3)n2)cc1 [IA-23, 4-(5-amino-6-(5-phenyl-1,3,4-oxadiazol-2-yl)pyrazin-2-yl)-N,N-dimethylbenzamide] |
| 10 to 100 | CC(C)S(=O)(=O)c1ccc(-c2cnc(N)c(-c3nnc(C(=O)N4CCCNCC4)o3)n2)cc1 [IA-79, [5-[3-amino-6-(4-isopropylsulfonylphenyl)pyrazin-2-yl]-1,3,4-oxadiazol-2-yl]-(1,4-diazepan-1-yl)methanone] |
| ≤ 10 | C[S+]([O-])c1ccccc1-c1cnc(N)c(-c2nnc(-c3cccc(CN)c3)o2)n1 (stereo not drawn) [IA-257, 3-[5-[3-(aminomethyl)phenyl]-1,3,4-oxadiazol-2-yl]-5-(2-methylsulfinylphenyl)pyrazin-2-amine] |
| 10 to 100 | Nc1ccccc1-c1cnc(N)c(-c2nnc(-c3ccccc3)o2)n1 [IA-58] |
| 100 to 5000 | CN(C)C(=O)c1ccc(-c2cnc(N)c(-c3nnc(-c4ccccc4)o3)n2)c(C=CF)c1 [IA-148, 4-[5-amino-6-(5-phenyl-1,3,4-oxadiazol-2-yl)pyrazin-2-yl]-3-(2-fluorovinyl)-N,N-dimethyl-benzamide] |
| 10 to 100 | CC(C)S(=O)(=O)c1ccc(-c2cnc(N)c(-c3nnc(CC(=O)O)o3)n2)cc1 [IA-78, 2-[5-[3-amino-6-(4-isopropylsulfonylphenyl)pyrazin-2-yl]-1,3,4-oxadiazol-2-yl]acetic acid] |
| 10 to 100 | COc1cc(-c2cnc(N)c(C(=O)Nc3ccccc3)n2)ccn1 [Compound I-38, 3-amino-6-(2-methoxypyridin-4-yl)-N-phenylpyrazine-2-carboxamide] |
| 10 to 100 | CN(C)CCN(C)C(=O)c1ccc(-c2cnc(N)c(C(=O)Nc3ccccc3)n2)cc1 [Compound I-68, 3-amino-6-(4-((2-(dimethylamino)ethyl)(methyl)carbamoyl)phenyl)-N-phenylpyrazine-2-carboxamide] |
| 100 to 5000 | Nc1ncc(-c2cccnc2)nc1C(=O)Nc1cccn2ncnc12 [Compound V-14] |
| 100 to 5000 | Nc1ncc(-c2ccc(C(=O)NCCN3CCCC3)cc2)nc1C(=O)Nc1ccccc1 [Compound I-46, 3-amino-N-phenyl-6-(4-(2-(pyrrolidin-1-yl)ethylcarbamoyl)phenyl) pyrazine-2-carboxamide] |
| 100 to 5000 | CC(C)S(=O)(=O)c1ccc(-c2cnc(N)c(-c3nnc(N4CC(N)C4)o3)n2)cc1 [IA-111, 3-[5-(3-aminoazetidin-1-yl)-1,3,4-oxadiazol-2-yl]-5-(4-isopropylsulfonylphenyl)pyrazin-2-amine] |
| ≤ 10 | CS(=O)(=O)c1ccc(-c2cnc(N)c(-c3nc4ccc(Cl)cc4[nH]3)n2)cc1 [Compound I-114, 3-(6-chloro-1H-benzo[d]imidazol-2-yl)-5-(4-(methylsulfonyl)phenyl) pyrazin-2-amine] |
| 10 to 100 | CC(=O)OCc1ccc(-c2nnc(-c3nc(-c4ccc(C(=O)N(C)C)cc4)cnc3N)o2)cc1 [IA-131, [4-[5-[3-amino-6-[4-(dimethylcarbamoyl)phenyl]pyrazin-2-yl]-1,3,4-oxadiazol-2-yl]phenyl]methyl acetate] |
| 100 to 5000 | NC(=O)c1cccc(NC(=O)c2nc(-c3cccnc3)cnc2N)c1 [Compound I-88, 3-amino-N-(3-carbamoylphenyl)-6-(pyridin-3-yl)pyrazine-2-carboxamide] |
| 100 to 5000 | CC(C)S(=O)(=O)c1ccc(-c2cnc(N)c(-c3nnc(N4CCCC(CN)C4)o3)n2)cc1 (stereo not drawn) [IA-227, 3-[5-[3-(aminomethyl)-1-piperidyl]-1,3,4-oxadiazol-2-yl]-5-(4-isopropylsulfonylphenyl)pyrazin-2-amine] |
| 10 to 100 | CCOC(=O)N1CCN(C(=O)c2ccc(-c3cnc(N)c(-c4nnc(-c5ccccc5)o4)n3)cc2)CC1 [IA-11] |
| 10 to 100 | CN(C)C(=O)c1ccc(-c2cnc(N)c(-c3nnc(Nc4ccc(Cl)cc4)o3)n2)cc1 [IA-42] |
| 100 to 5000 | COc1ccc(NC(=O)c2nc(-c3cccnc3)cnc2N)cc1 [Compound I-84, 3-amino-N-(4-methoxyphenyl)-6-(pyridin-3-yl)pyrazine-2-carboxamide] |

| Ki [nM] | Structure (SMILES) |
| --- | --- |
| 100 to 5000 | CCS(=O)(=O)c1ccccc1-c1cnc(N)c(-c2nnc(-c3ccccc3)o2)n1 [IA-203, 5-(2-ethylsulfonylphenyl)-3-(5-phenyl-1,3,4-oxadiazol-2-yl)pyrazin-2-amine] |
| 10 to 100 | CS(=O)(=O)c1ccc(-c2cnc(N)c(-c3nc4ccc(C#N)cc4[nH]3)n2)cc1 [Compound I-111, 2-(3-amino-6-(4-(methylsulfonyl)phenyl)pyrazin-2-yl)-1H-benzo[d]imidazole-6-carbonitrile] |
| 10 to 100 | Nc1ncc(-c2ccc3[nH]ncc3c2)nc1C(=O)Nc1ccccc1 [Compound I-39, 3-amino-6-(1H-indazol-5-yl)-N-phenylpyrazine-2-carboxamide] |
| 10 to 100 | Cc1ccc2nc(-c3nc(-c4ccc(C(=O)N5CCCN(C)CC5)cc4)cnc3N)[nH]c2c1 [III-5, (4-(5-amino-6-(6-methyl-1H-benzo[d]imidazol-2-yl)pyrazin-2-yl)phenyl)(4-methyl-1,4-diazepan-1-yl)methanone] |
| 100 to 5000 | C=Cc1ccccc1-c1cnc(N)c(-c2nnc(-c3ccccc3)o2)n1 [IA-253, 3-(5-phenyl-1,3,4-oxadiazol-2-yl)-5-(2-vinylphenyl)pyrazin-2-amine] |
| ≤ 10 | Nc1ncc(-c2ccc(S(=O)(=O)C3CCOC3)cc2)nc1-c1nnc(-c2ccccc2F)o1 (stereo not drawn) [IA-349, 3-[5-(2-fluorophenyl)-1,3,4-oxadiazol-2-yl]-5-(4-tetrahydrofuran-3-ylsulfonylphenyl)pyrazin-2-amine] |
| ≤ 10 | COc1ccncc1NC(=O)c1nc(-c2ccc(S(C)(=O)=O)cc2)cnc1N [VII-9] |
| ≤ 10 | Nc1ncc(-c2ccc(C(=O)N3CCCNCC3)cc2)nc1-c1cc(-c2ccccc2)no1 [IIA-3] |
| 100 to 5000 | Nc1ncc(-c2cccc(OC(F)(F)F)c2)nc1-c1nnc(-c2ccccc2)o1 [IA-150, 3-(5-phenyl-1,3,4-oxadiazol-2-yl)-5-[3-(trifluoromethoxy)phenyl]pyrazin-2-amine] |
| ≤ 10 | CNC(=N)c1ccc(-c2nnc(-c3nc(-c4ccc(S(=O)(=O)C(C)C)cc4)cnc3N)o2)cc1 [IA-208, 4-[5-[3-amino-6-(4-isopropylsulfonylphenyl)pyrazin-2-yl]-1,3,4-oxadiazol-2-yl]-N-methyl-benzamidine] |
| 100 to 5000 | CN(C)Cc1ccccc1-c1cnc(N)c(-c2nnc(-c3ccccc3)o2)n1 [IA-118, 5-(2-((dimethylamino)methyl)phenyl)-3-(5-phenyl-1,3,4-oxadiazol-2-yl)pyrazin-2-amine] |
| ≤ 10 | CNCc1ccc(-c2nnc(-c3nc(-c4ccc(S(=O)(=O)N(C)C)cc4)cnc3N)o2)cc1 [IA-296, 4-[5-amino-6-[5-[4-(methylaminomethyl)phenyl]-1,3,4-oxadiazol-2-yl]pyrazin-2-yl]-N,N-dimethyl-benzenesulfonamide] |
| ≤ 10 | CNCc1ccc(-c2nnc(-c3nc(-c4ccc(S(=O)(=O)C(C)C)cc4)cnc3N)o2)cc1F [IA-336, 3-[5-[3-fluoro-4-(methylaminomethyl)phenyl]-1,3,4-oxadiazol-2-yl]-5-(4-isopropylsulfonylphenyl)pyrazin-2-amine] |
| 100 to 5000 | Nc1ncc(-c2cncnc2)nc1C(=O)Nc1ccccc1 [Compound I-40, 3-amino-N-phenyl-6-(pyrimidin-5-yl)pyrazine-2-carboxamide] |
| ≤ 10 | CC(C)S(=O)(=O)c1ccc(-c2cnc(N)c(-c3nnc(-c4ccc(CNCCO)cc4)o3)n2)cc1 [IA-178, 2-(4-(5-(3-amino-6-(4-(isopropylsulfonyl)phenyl)pyrazin-2-yl)-1,3,4-oxadiazol-2-yl)benzylamino)ethanol] |
| ≤ 10 | Nc1ncc(-c2ccc(C(=O)N3CCCNCC3)cc2C(F)(F)F)nc1-c1nnc(-c2ccccc2)o1 [IA-39] |
| 100 to 5000 | CN(C)C(=O)c1ccc(-c2cnc(N)c(-c3nnc(NCCc4ccccc4)o3)n2)cc1 [IA-156, 4-[5-amino-6-[5-(phenethylamino)-1,3,4-oxadiazol-2-yl]pyrazin-2-yl]-N,N-dimethyl-benzamide] |
| 100 to 5000 | Nc1ncc(-c2ccc(NCCN3CCOCC3)nc2)nc1-c1nnc(-c2ccccc2)o1 [IA-72, 5-[6-(2-morpholinoethylamino)-3-pyridyl]-3-(5-phenyl-1,3,4-oxadiazol-2-yl)pyrazin-2-amine] |
| 10 to 100 | Nc1ncc(-c2ccc3ncccc3c2)nc1-c1nnc(-c2ccccc2)o1 [IA-63] |
| 100 to 5000 | Nc1ncc(-c2cccc(C(F)(F)F)c2)nc1-c1nnc(-c2ccccc2)o1 [IA-96, 3-(5-phenyl-1,3,4-oxadiazol-2-yl)-5-[3-(trifluoromethyl)phenyl]pyrazin-2-amine] |

| Structure (SMILES) | Ki [nM] |
| --- | --- |
| COC(=O)N1CCCN(C(=O)c2ccc(-c3cnc(N)c(-c4nnc(-c5ccccc5)o4)n3)cc2)CC1 [IA-34] | ≤ 10 |
